Data on twelve molecules can be found in US20030171361A1, “Pyrrolopyrimidinone derivatives, process of preparation and use” (priority 2002, published 2003).

Data set [1] addresses rabbit platelet PDE V (Oryctolagus cuniculus, UniProt G1SX67). The experiment in a line: inhibition of cGMP PDE V activity (PDE SPA assay kit, [3H]-cGMP). The class given is biochemical. To be noted: in vitro, inhibitors of cGMP PDE V; rabbit platelet enzyme, 30° C., 30 min. On the procedure: The rabbit platelet PDE V was prepared using the method described by Hidaka et al.(Biochim. Biophys. Acta., 429: 485-497, 1976) with minor modification. The platelet-rich plasma (PRP) was prepared by centrifugation of freshly obtained heparinized whole blood at 360 g. Platelets were isolated from the PRP by centrifugation at 1,200 g. Platelet homogenates were prepared in the homogenization buffer (50 mM Tris-HCl buffer containing 1 mM MgCl2, pH 7.4) by sonication for 30 s per 1 mL. The homogenized solutions were then centrifuged at 40,000×g for 2 h at 4° C. The supernatant was loaded on the DEAE-cellulose column (20 mL bed volume, Sigma) pre-equilibrated with equilibration buffer (50 mM Tris-acetate containing 3.75 mM 2-mercaptoethanol, pH 6.0).The column was then washed with 60 mL of equilibration buffer. The PDE isozymes were eluted using a continuous gradient of 0 to 600 mM sodium acetate in the equilibration buffer (60 mL total volume). The 1.0 mL fractions were collected. A flow rate of 60 mL/h was used throughout the ion-exchange chromatography procedure. PDE activities on cAMP and cGMP were characterized as described below. The characterized fractions were pooled and stored at −80 ° C. until the inhibition studies
The cyclic nucleotide PDE V activity was determined using PDE SPA assay kit (Amersham Pharmacia biotech, UK).Each reaction mixture (100 μL total volume) consisted of the column elute containing PDE V (10 μL), [^3H]-cGMP (5 μCi/mL), bovine serum albumin (0.5 mg/mL), and MgCl2 (5 mM) in Tris-HCl buffer (15 mM, pH 7.5).The reactions were initiated by the addition of PDE V and the samples were incubated at 30° C. for 30 min, after which the reaction was stopped by the addition of 50 μL of SPA beads. The reaction tube was then settled for 20 min and was counted on the scintillation counter (Tri-carb 1500, Packard, USA). For the inhibition study of PDE V activity, the test compounds were dissolved in dimethyl sulfoxide (DMSO) and was diluted with distilled water. The final concentration of DMSO was less than 0.2% (v/v).All the inhibition experiments were conducted tinder the conditions where the level of cGMP hydrolysis (lid not exceed 15%, and the product formation increased linearly with time and the amount of enzyme.
The following Table illustrates the in vitro activities for a range of the compounds of the invention as inhibitors of cGMP PDE V.

Usually IC50 stands for the concentration that gives 50% inhibition. The low end stands for inhibition by little substance, the high end for a need for much substance. Usually melting point stands for the temperature of the solid-liquid transition. Take `CCCOc1ccc(S(=O)(=O)N2CCN(CCO)CC2)cc1-c1nc2c(CCCF)cn(CC)c2c(=O)[nH]1` [Example 30]: the melting point is 162 to 163 °C. Moreover, the half-maximal inhibitory concentration (IC50) in data set [1] came to 0.18 nM.

Regarding `CCCc1cn(C)c2c(=O)[nH]c(-c3cc(S(=O)(=O)N4CCN(C)CC4)ccc3OCC)nc12` [Example 1, 52-(2-ethoxy-5-(4-methylpiperazinylpiperazin-1-ylsulfonyl)phenyl)-15-methyl-37-n-propyl-1,63,5-dihydro-7H4H-pyrrolo[4,33,2-d]pyrimidin-74-one], the melting point lay within 220.5 to 221 °C. In data set [1], inhibition was half-maximal at 2.9 nM (IC50).

`CCCOc1ccc(S(=O)(=O)N2CCN(CCO)CC2)cc1-c1nc2c(CCC)cn(C)c2c(=O)[nH]1` [Example 53, 52-(5-(4-(2-hydroxyethyl)piperazinylpiperazin-1-ylsulfonyl)-2-n-propoxyphenyl)-15-methyl-37-n-propyl-1,63,5-dihydro-7H4H-pyrrolo[4,33,2-d]pyrimidin-74-one] returned a half-inhibitory concentration (IC50) in data set [1] of 0.49 nM.

In the case of `CCCOc1ccc(S(=O)(=O)N2CCN(C)CC2)cc1-c1nc2c(CCC)cn(C)c2c(=O)[nH]1` [Example 3, 52-(5-(4-methylpiperazinylpiperazin-1-ylsulfonyl)-2-n-propoxyphenyl)-15-methyl-37-n-propyl-1,63,5-dihydro-7H4H-pyrrolo[4,33,2-d]pyrimidin-74-one], the melting point lay within 183 to 183.5 °C. This molecule came in with a concentration for half-maximal inhibition (IC50) in data set [1] of 0.59 nM.

In data set [1], `CCCc1cn(C)c2c(=O)[nH]c(-c3cc(S(=O)(=O)N4CCN(CCO)CC4)ccc3OCC)nc12` [Example 51, 52-(2-ethoxy-5-(4-(2-hydroxyethyl)piperazinylpiperazin-1-ylsulfonyl)phenyl)-15-methyl-37-n-propyl-1,63,5-dihydro-7H4H-pyrrolo[4,33,2-d]pyrimidin-74-one] gave an IC50 of 2.06 nM.

On to `CCCOc1ccc(S(=O)(=O)N2CCN(CCO)CC2)cc1-c1nc2c(CCC)cn(CC)c2c(=O)[nH]1` [Example 31], for which, in data set [1], the IC50 was 0.33 nM.

Turning to `CCCOc1ccc(S(=O)(=O)N2CCN(CCCF)CC2)cc1-c1nc2c(CCC)cn(C)c2c(=O)[nH]1` [Example 37, 52-(5-(4-(3-fluoropropyl)piperazinylpiperazin-1-ylsulfonyl)-2-n-propoxyphenyl)-15-methyl-37-n-propyl-1,63,5-dihydro-7H4H-pyrrolo[4,33,2-d]pyrimidin-74-one], it took 0.64 nM to reach half-maximal inhibition in data set [1] (IC50).

Molecule `CCCOc1ccc(S(=O)(=O)N2CCC(CCC(=O)O)CC2)cc1-c1nc2c(CCC)cn(C)c2c(=O)[nH]1` [Example 124, 52-(5-(4-(2-hydroxycarbonylethyl)piperidinylpiperidin-1-ylsulfonyl)-2-n-propoxyphenyl)-15-methyl-37-n-propyl-1,63,5-dihydro-7H4H-pyrrolo[4,33,2-d]pyrimidin-74-one] yielded an IC50 in data set [1] of 0.27 nM.

As to `CCOc1ccc(S(=O)(=O)N2CCN(CCCF)CC2)cc1-c1nc2c(CC)cn(CC)c2c(=O)[nH]1` [Example 18, 52-(2-ethoxy-5-(4-(3-fluoropropyl)piperazinylpiperazin-1-ylsulfonyl)phenyl)-15-ethyl-37-ethyl-1,63,5-dihydro-7H4H-pyrrolo[4,33,2-d]pyrimidin-74-one], the melting point was in the range of 182 to 182.5 °C. In data set [1], this molecule yielded an IC50 of 2.23 nM.

In the case of `CCCc1cn(C)c2c(=O)[nH]c(-c3cc(S(=O)(=O)N4CCC(CCC(=O)O)CC4)ccc3OCC)nc12` [Example 123, 52-(2-ethoxy-5-(4-(2-hydroxycarbonylethyl)piperidinylpiperidin-1-ylsulfonyl)phenyl)-15-methyl-37-n-propyl-1,63,5-dihydro-7H4H-pyrrolo[4,33,2-d]pyrimidin-74-one], the melting point lay in the range of 129 to 130.5 °C. In addition, the 50% inhibitory concentration (IC50) in data set [1] was 0.71 nM.

On to `CCOc1ccc(S(=O)(=O)N2CCN(CCCF)CC2)cc1-c1nc2c(CCCF)cn(CC)c2c(=O)[nH]1` [Example 26, 52-(2-ethoxy-5-(4-(3-fluoropropyl)piperazinylpiperazin-1-ylsulfonyl)phenyl)-15-ethyl-37(3-fluoropropyl)-1,63,5-dihydro-7H4H-pyrrolo-[4,33,2-d]pyrimidin-74-one], for which the melting point was in the range of 194 to 194.5 °C. The IC50 in data set [1] worked out at 0.62 nM.

Regarding `CCCc1cn(C)c2c(=O)[nH]c(-c3cc(S(=O)(=O)N4CCN(CCCF)CC4)ccc3OCC)nc12` [Example 14, 52-(2-ethoxy-5-(4-(3-fluoropropyl)piperazinylpiperazin-1-ylsulfonyl)phenyl)-15-methyl-37-n-propyl-1,63,5-dihydro-7H4-pyrrolo[4,33,2-d]pyrimidin-74-one], the melting point lay in the range of 217.5 to 218 °C. The half-maximal inhibitory concentration (IC50) in data set [1] was 1.36 nM.
